The results in this text go back to patent EP0013144A1, “Substituted diphenylamine derivatives, compositions and herbicidal uses thereof, and processes for their preparation” (ICI AUSTRALIA LIMITED, priority 1978, dated 1980).

In the first assay the test system is Mustard. Briefly: Pre-emergence herbicidal activity (Example 31). The assay is classed as in vivo. The note with it: 1 kg/ha, after three weeks. The method, boiled down:
(§1)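 Visual damage score at three weeks: 0 = 0–25% damage, 3 = 75–99% kill, 3+ = 100% kill. Soil boxes with seeds sown 2 cm deep were sprayed before emergence with water-diluted emulsifiable concentrate or suspension, then grown in a glasshouse alongside unsprayed controls.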
`COC(=O)C(C)Oc1ccc(N(C)c2ccc(Br)cc2[N+](=O)[O-])cc1` (centres unmarked) [Compound 30]: the “damage to plants, Ms” value turned out to be 1.
On the same count and under the same terms, as for `COC(=O)C(C)Oc1ccc(N(C)c2ccc(Cl)cc2[N+](=O)[O-])cc1` (centres unmarked) [Compound 27], the figure is 0 (0 represents from 0 to 25% damage).

Staying with this assay, now noted: 5 kg/ha, after three weeks.
As to `COC(=O)C(C)Oc1ccc(N(C)c2ccc(Br)cc2[N+](=O)[O-])cc1` (centres unmarked) [Compound 30], the “damage to plants, Ms” value amounted to 2.
Same read-out and setting: the same measure for `COC(=O)C(C)Oc1ccc(N(C)c2ccc(Cl)cc2[N+](=O)[O-])cc1` (centres unmarked) [Compound 27]: 0 (0 represents from 0 to 25% damage).

The next assay deals with Wild Oats. Nature of the assay: Pre-emergence herbicidal activity (Example 31). The assay is classed as in vivo. The note with it: 1 kg/ha, after three weeks. In outline:
as §1
Turning to `COC(=O)C(C)Oc1ccc(N(C)c2ccc(Br)cc2[N+](=O)[O-])cc1` (centres unmarked) [Compound 30], the “damage to plants, Ot” value was 1.

Still in this assay, the particulars now being: 5 kg/ha, after three weeks.
Consider `COC(=O)C(C)Oc1ccc(N(C)c2ccc(Br)cc2[N+](=O)[O-])cc1` (centres unmarked) [Compound 30], for which the “damage to plants, Ot” value is given as 3 (3 represents 75 to 99% kill).

A further assay deals with Japanese millet. Briefly: Pre-emergence herbicidal activity (Example 31). The class given is in vivo. The note with it: 1 kg/ha, after three weeks. The method, boiled down:
as §1
In the case of `COC(=O)C(C)Oc1ccc(N(C)c2ccc(Br)cc2[N+](=O)[O-])cc1` (centres unmarked) [Compound 30], the “damage to plants, Jm” value came to 1.
On the same count and under the same terms, the same measure for `COC(=O)C(C)Oc1ccc(N(C)c2ccc(Cl)cc2[N+](=O)[O-])cc1` (centres unmarked) [Compound 27]: 1.

Staying with this assay, now noted: 5 kg/ha, after three weeks.
For `COC(=O)C(C)Oc1ccc(N(C)c2ccc(Br)cc2[N+](=O)[O-])cc1` (centres unmarked) [Compound 30], the “damage to plants, Jm” value was 3 (3 represents 75 to 99% kill).
Still for that read-out and setting: as for `COC(=O)C(C)Oc1ccc(N(C)c2ccc(Cl)cc2[N+](=O)[O-])cc1` (centres unmarked) [Compound 27], the figure is 3 (3 represents 75 to 99% kill).

A further assay concerns Ipomea. Nature of the assay: Pre-emergence herbicidal activity (Example 31). The conditions noted are these: 1 kg/ha, after three weeks. The class given is in vivo. In outline: as §1
Take `COC(=O)C(C)Oc1ccc(N(C)c2ccc(Br)cc2[N+](=O)[O-])cc1` (centres unmarked) [Compound 30]: the “damage to plants, Ip” value is reported as 0 (0 represents from 0 to 25% damage).
On the same count and under the same terms, as for `COC(=O)C(C)Oc1ccc(N(C)c2ccc(Cl)cc2[N+](=O)[O-])cc1` (centres unmarked) [Compound 27], the figure is 0 (0 represents from 0 to 25% damage).

Staying with this assay, now noted: 5 kg/ha, after three weeks.
On to `COC(=O)C(C)Oc1ccc(N(C)c2ccc(Br)cc2[N+](=O)[O-])cc1` (centres unmarked) [Compound 30], for which the “damage to plants, Ip” value is reported as 0 (0 represents from 0 to 25% damage).
The same measure, in the same setting: as for `COC(=O)C(C)Oc1ccc(N(C)c2ccc(Cl)cc2[N+](=O)[O-])cc1` (centres unmarked) [Compound 27], the figure is 0 (0 represents from 0 to 25% damage).

The next assay has as its system Sunflower. Briefly: Pre-emergence herbicidal activity (Example 31). The conditions noted are these: 1 kg/ha, after three weeks. The assay is classed as in vivo. In outline:
as §1
In the case of `COC(=O)C(C)Oc1ccc(N(C)c2ccc(Br)cc2[N+](=O)[O-])cc1` (centres unmarked) [Compound 30], the “damage to plants, Sf” value was 0 (0 represents from 0 to 25% damage).
On the same count and under the same terms, as for `COC(=O)C(C)Oc1ccc(N(C)c2ccc(Cl)cc2[N+](=O)[O-])cc1` (centres unmarked) [Compound 27], the figure is 0 (0 represents from 0 to 25% damage).

Still in this assay, the particulars now being: 5 kg/ha, after three weeks.
With `COC(=O)C(C)Oc1ccc(N(C)c2ccc(Br)cc2[N+](=O)[O-])cc1` (centres unmarked) [Compound 30], the “damage to plants, Sf” value was 0 (0 represents from 0 to 25% damage).
Consider `COC(=O)C(C)Oc1ccc(N(C)c2ccc(Cl)cc2[N+](=O)[O-])cc1` (centres unmarked) [Compound 27], for which the “damage to plants, Sf” value is recorded as 0 (0 represents from 0 to 25% damage).

The next assay deals with Chenopodium album. Nature of the assay: Pre-emergence herbicidal test, fibre trays (Example 33). The note with it: 2.0 kg/ha, after 21 days. The class given is in vivo. The method, boiled down: (§2)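 Scoring used a 0–5 scale (0 = 0–20% damage, 5 = complete kill) against untreated controls: day 21 for seeds sown in fibre trays, sprayed, then topped with soil; day 14 for sprayed young pot plants. Sprays were 40 ml aqueous dilutions of a surfactant/methylcyclohexanone emulsion.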
Turning to `COC(=O)C(C)Oc1ccc(N(C)c2ccc(Br)cc2[N+](=O)[O-])cc1` (centres unmarked) [Compound 30], the “herbicidal damage, Ca” value is given as 0 (0 is 0 to 20% damage).
Same read-out and setting: as for `COC(=O)C(C)Oc1ccc(N(C)c2ccc(Cl)cc2[N+](=O)[O-])cc1` (centres unmarked) [Compound 27], the figure is 0 (0 is 0 to 20% damage).

The next assay relates to Soy bean. Described as above. The conditions noted are these: 2.0 kg/ha, after 21 days. The class given is in vivo. In outline: as §2
With `COC(=O)C(C)Oc1ccc(N(C)c2ccc(Br)cc2[N+](=O)[O-])cc1` (centres unmarked) [Compound 30], the “herbicidal damage, Sy” value was 0 (0 is 0 to 20% damage).
Still for that read-out and setting: the same measure for `COC(=O)C(C)Oc1ccc(N(C)c2ccc(Cl)cc2[N+](=O)[O-])cc1` (centres unmarked) [Compound 27]: 0 (0 is 0 to 20% damage).

The next assay deals with Senecio vulgaris. The description is as above. The note with it: 2.0 kg/ha, after 21 days. The class given is in vivo. The method, boiled down: as §2
Turning to `COC(=O)C(C)Oc1ccc(N(C)c2ccc(Br)cc2[N+](=O)[O-])cc1` (centres unmarked) [Compound 30], the “herbicidal damage, Sn” value was 2.
The same measure, in the same setting: the same measure for `COC(=O)C(C)Oc1ccc(N(C)c2ccc(Cl)cc2[N+](=O)[O-])cc1` (centres unmarked) [Compound 27]: 1.

In another assay the test system is Amaranthus retroflexus. The description is as above. The class given is in vivo. The note with it: 2.0 kg/ha, after 21 days. In outline:
as §2
Consider `COC(=O)C(C)Oc1ccc(N(C)c2ccc(Br)cc2[N+](=O)[O-])cc1` (centres unmarked) [Compound 30], for which the “herbicidal damage, Am” value turned out to be 1.
On the same count and under the same terms, as for `COC(=O)C(C)Oc1ccc(N(C)c2ccc(Cl)cc2[N+](=O)[O-])cc1` (centres unmarked) [Compound 27], the figure is 0 (0 is 0 to 20% damage).

A further assay has as its system Rape. The description is as above. The conditions noted are these: 2.0 kg/ha, after 21 days. The assay is classed as in vivo. The method, boiled down:
as §2
Regarding `COC(=O)C(C)Oc1ccc(N(C)c2ccc(Br)cc2[N+](=O)[O-])cc1` (centres unmarked) [Compound 30], the “herbicidal damage, Rp” value is 0 (0 is 0 to 20% damage).
The same measure, in the same setting: as for `COC(=O)C(C)Oc1ccc(N(C)c2ccc(Cl)cc2[N+](=O)[O-])cc1` (centres unmarked) [Compound 27], the figure is 0 (0 is 0 to 20% damage).

Another assay relates to Ipomea purpurea. The assay is described as above. The note with it: 2.0 kg/ha, after 21 days. The class given is in vivo. The method, boiled down:
as §2
Turning to `COC(=O)C(C)Oc1ccc(N(C)c2ccc(Br)cc2[N+](=O)[O-])cc1` (centres unmarked) [Compound 30], the “herbicidal damage, Ip” value is listed as 0 (0 is 0 to 20% damage).
Same read-out and setting: as for `COC(=O)C(C)Oc1ccc(N(C)c2ccc(Cl)cc2[N+](=O)[O-])cc1` (centres unmarked) [Compound 27], the figure is 0 (0 is 0 to 20% damage).

A further assay relates to Winter wheat. Described as above. The assay is classed as in vivo. The note with it: 2.0 kg/ha, after 21 days. In outline: as §2
As to `COC(=O)C(C)Oc1ccc(N(C)c2ccc(Br)cc2[N+](=O)[O-])cc1` (centres unmarked) [Compound 30], the “herbicidal damage, Ww” value is recorded as 1.
On to `COC(=O)C(C)Oc1ccc(N(C)c2ccc(Cl)cc2[N+](=O)[O-])cc1` (centres unmarked) [Compound 27], for which the “herbicidal damage, Ww” value stood at 1.

The subject of a further assay is Polygonum aviculare. The assay is described as above. The note with it: 2.0 kg/ha, after 21 days. The assay is classed as in vivo. The method, boiled down:
as §2
Turning to `COC(=O)C(C)Oc1ccc(N(C)c2ccc(Br)cc2[N+](=O)[O-])cc1` (centres unmarked) [Compound 30], the “herbicidal damage, Pi” value is listed as 0 (0 is 0 to 20% damage).
Turning to `COC(=O)C(C)Oc1ccc(N(C)c2ccc(Cl)cc2[N+](=O)[O-])cc1` (centres unmarked) [Compound 27], the “herbicidal damage, Pi” value was 0 (0 is 0 to 20% damage).

Another assay has as its system Wheat. Briefly: Pre-emergence herbicidal activity (Example 31). More on the design: key: 0-3 scale: 0 = 0-25% damage, 3 = 75-99% kill, 3+ = 100% kill. The note with it: 1 kg/ha, after three weeks. The class given is in vivo. The method, boiled down: as §1
Turning to `COC(=O)C(C)Oc1ccc(N(C)c2ccc(Br)cc2[N+](=O)[O-])cc1` (centres unmarked) [Compound 30], the “damage to plants, Wh” value is given as 0 (0 represents from 0 to 25% damage).
With `COC(=O)C(C)Oc1ccc(N(C)c2ccc(Cl)cc2[N+](=O)[O-])cc1` (centres unmarked) [Compound 27], the “damage to plants, Wh” value is recorded as 0 (0 represents from 0 to 25% damage).

The assay is the same for the next values; noted with them: 5 kg/ha, after three weeks.
Turning to `COC(=O)C(C)Oc1ccc(N(C)c2ccc(Br)cc2[N+](=O)[O-])cc1` (centres unmarked) [Compound 30], the “damage to plants, Wh” value is listed as 0 (0 represents from 0 to 25% damage).
Turning to `COC(=O)C(C)Oc1ccc(N(C)c2ccc(Cl)cc2[N+](=O)[O-])cc1` (centres unmarked) [Compound 27], the “damage to plants, Wh” value is 1.

The next assay relates to Senecio vulgaris. Nature of the assay: Post-emergence herbicidal test, young pot plants (Example 33). The class given is in vivo. The conditions noted are these: 2.0 kg/ha, after 14 days. The method, boiled down: as §2
In the case of `COC(=O)C(C)Oc1ccc(N(C)c2ccc(Br)cc2[N+](=O)[O-])cc1` (centres unmarked) [Compound 30], the “damage to test plants, Sn” value stood at 2.
Same read-out and setting: the same measure for `COC(=O)C(C)Oc1ccc(N(C)c2ccc(Cl)cc2[N+](=O)[O-])cc1` (centres unmarked) [Compound 27]: 1.

In a further assay the test system is Rape. Described as above. The class given is in vivo. The note with it: 2.0 kg/ha, after 14 days. The method, boiled down: as §2
For the compound `COC(=O)C(C)Oc1ccc(N(C)c2ccc(Br)cc2[N+](=O)[O-])cc1` (centres unmarked) [Compound 30], the “damage to test plants, Rp” value came to 1.
Take `COC(=O)C(C)Oc1ccc(N(C)c2ccc(Cl)cc2[N+](=O)[O-])cc1` (centres unmarked) [Compound 27]: the “damage to test plants, Rp” value is on record as 0 (0 is 0 to 20% damage).

The next assay has as its system Polygonum aviculare. The description is as above. The class given is in vivo. The conditions noted are these: 2.0 kg/ha, after 14 days. In outline: as §2
With `COC(=O)C(C)Oc1ccc(N(C)c2ccc(Br)cc2[N+](=O)[O-])cc1` (centres unmarked) [Compound 30], the “damage to test plants, Pi” value is on record as 0 (0 is 0 to 20% damage).
Same read-out and setting: the same measure for `COC(=O)C(C)Oc1ccc(N(C)c2ccc(Cl)cc2[N+](=O)[O-])cc1` (centres unmarked) [Compound 27]: 0 (0 is 0 to 20% damage).
